Reference: patent US12310975B2, “Modulators of BCL6 proteolysis and associated methods of use” (Arvinas Operations, Inc., priority 2019, dated 2025)
Read-outs that look alike come from different tables or passages of the source.

Biological target: BCL6 (Homo sapiens (Human), UniProt P41182)
Assay: Immunofluorescence high content imaging of BCL6 degradation in T47D cells
Assay type: cell-based
Conditions: for DC50: class symbols A-D, read-out: EC50 (nM)*
Procedure, shortened: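 Read-out is BCL6 immunofluorescence quantified by high-content imaging (10×, 4 fields per well) of T47D breast cancer cells. Cells were exposed for 3 days to degrader in an 11-point, 3-fold serial dilution reaching a final top concentration of 0.1 or 1 μM.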

| SMILES | IC50 [nM] | Dmax (T47D) [%] | other results |
| --- | --- | --- | --- |
| CNC(=O)COc1cc2cc(Nc3nc(N4CCC(OCCOCCOCCOCCOCCNc5cccc6c5C(=O)N(C5CCC(=O)NC5=O)C6=O)CC4)ncc3Cl)ccc2n(C)c1=O (stereo not shown) [compound 69, 2-((6-((5-chloro-2-(4-((14-((2-(2,6-dioxopiperidin-3-yl)-1,3-dioxoisoindolin-4-yl)amino)-3,6,9,12-tetraoxatetradecyl)oxy)piperidin-1-yl)pyrimidin-4-yl)amino)-1-methyl-2-oxo-1,2-dihydroquinolin-3-yl)oxy)-N-methylacetamide] | – | – | DC50: > 100 nM |
| CCn1c(=O)c(OCC(=O)NC)cc2cc(Nc3nc(N4CCC(OC5CCN(c6cccc7c6C(=O)N(C6CCC(=O)NC6=O)C7=O)CC5)CC4)ncc3Cl)ccc21 (stereo not shown) [compound 292, 2-{[6-({5-chloro-2-[4-({1-[2-(2,6-dioxopiperidin-3-yl)-1,3-dioxo-2,3-dihydro-1H-isoindol-4-yl]piperidin-4-yl}oxy)piperidin-1-yl]pyrimidin-4-yl}amino)-1-ethyl-2-oxo-1,2-dihydroquinolin-3-yl]oxy}-N-methylacetamide] | < 10 | 50 to 70 | – |
| CNC(=O)COc1cc2cc(Nc3nc(N4CCC(CN5CCC6(CCN(c7ccc8c(c7)CN(C7CCC(=O)NC7=O)C8=O)C6)C5)CC4)ncc3Cl)ccc2n(C(C)C)c1=O (stereo not shown) [compound 437, 2-{[6-({5-chloro-2-[4-({7-[2-(2,6-dioxopiperidin-3-yl)-1-oxo-2,3-dihydro-1H-isoindol-5-yl]-2,7-diazaspiro[4.4]nonan-2-yl}methyl)piperidin-1-yl]pyrimidin-4-yl}amino)-2-oxo-1-(propan-2-yl)-1,2-dihydroquinolin-3-yl]oxy}-N-methylacetamide] | – | – | Dmax (T47D cells): ≥ 70%; IC50 (T47D cells): < 10 nM |
| CNC(=O)COc1cc2cc(Nc3nc(N4CCN(C(C)(C)C5CCN(c6cccc7c6C(=O)N(C6CCC(=O)NC6=O)C7=O)CC5)CC4)ncc3Cl)ccc2n(C(C)C)c1=O (stereo not shown) [compound 307, 2-{[6-({5-chloro-2-[4-(2-{1-[2-(2,6-dioxopiperidin-3-yl)-1,3-dioxo-2,3-dihydro-1H-isoindol-4-yl]piperidin-4-yl}propan-2-yl)piperazin-1-yl]pyrimidin-4-yl}amino)-2-oxo-1-(propan-2-yl)-1,2-dihydroquinolin-3-yl]oxy}-N-methylacetamide] | < 10 | 50 to 70 | – |
| CNC(=O)COc1cc2cc(Nc3nc(N4CCC(N(C)[C@H]5CC[C@@H](CN6CCN(c7ccc8c(c7)CN(C7CCC(=O)NC7=O)C8=O)CC6)CC5)CC4)ncc3Cl)ccc2n(C)c1=O (stereo partly shown) [compound 102, 2-((6-((5-chloro-2-(4-(((1s,4s)-4-((4-(2-(2,6-dioxopiperidin-3-yl)-1-oxoisoindolin-5-yl)piperazin-1-yl)methyl)cyclohexyl) (methyl)amino)piperidin-1-yl)pyrimidin-4-yl)amino)-1-methyl-2-oxo-1,2-dihydroquinolin-3-yl)oxy)-N-methylacetamide] | – | – | DC50: < 10 nM |
| CNC(=O)COc1cc2cc(Nc3nc(N4CCC(CN5CCC6(CC5)CN(c5cccc(C(=O)NC7CCC(=O)NC7=O)c5F)C6)CC4)ncc3Cl)ccc2n(C(C)C)c1=O (stereo not shown) [compound 419, 3-[7-({1-[5-chloro-4-({3-[(methylcarbamoyl)methoxy]-2-oxo-1-(propan-2-yl)-1,2-dihydroquinolin-6-yl}amino)pyrimidin-2-yl]piperidin-4-yl}methyl)-2,7-diazaspiro[3.5]nonan-2-yl]-N-(2,6-dioxopiperidin-3-yl)-2-fluorobenzamide] | – | – | Dmax (T47D cells): ≥ 70% |
| CNC(=O)COc1cc2cc(Nc3nc(N4CCN(CC5CCN(c6ccc(C(=O)NC7CCC(=O)NC7=O)c(OC)c6)CC5)CC4)ncc3Cl)ccc2n(C)c1=O (stereo not shown) [compound 243, 4-(4-((4-(5-chloro-4-((1-methyl-3-(2-(methylamino)-2-oxoethoxy)-2-oxo-1,2-dihydroquinolin-6-yl)amino)pyrimidin-2-yl)piperazin-1-yl)methyl)piperidin-1-yl)-N-(2,6-dioxopiperidin-3-yl)-2-methoxybenzamide] | < 10 | ≥ 70 | – |
| CNC(=O)COc1cc2cc(Nc3nc(N4CCC(OCCCOc5ccc6c(c5)CN(C5CCC(=O)NC5=O)C6=O)CC4)ncc3Cl)ccc2n(C)c1=O (stereo not shown) [compound 139, 2-((6-((5-chloro-2-(4-(3-((2-(2,6-dioxopiperidin-3-yl)-1-oxoisoindolin-5-yl)oxy)propoxy)piperidin-1-yl)pyrimidin-4-yl)amino)-1-methyl-2-oxo-1,2-dihydroquinolin-3-yl)oxy)-N-methylacetamide] | – | – | DC50: 50 to 100 nM |
| CNC(=O)COc1cc2cc(Nc3nc(N4CCC(CN5CCC6(CC5)CN(c5ccc7c(c5)CN(C5CCC(=O)NC5=O)C7=O)C6)CC4)ncc3Cl)ccc2n(C(C)C)c1=O (stereo not shown) [compound 417, 2-{[6-({5-chloro-2-[4-({2-[2-(2,6-dioxopiperidin-3-yl)-1-oxo-2,3-dihydro-1H-isoindol-5-yl]-2,7-diazaspiro[3.5]nonan-7-yl}methyl)piperidin-1-yl]pyrimidin-4-yl}amino)-2-oxo-1-(propan-2-yl)-1,2-dihydroquinolin-3-yl]oxy}-N-methylacetamide] | – | – | Dmax (T47D cells): ≥ 70%; IC50 (T47D cells): < 10 nM |
| CNC(=O)COc1cc2cc(Nc3nc(N4CCN(CC5CCN(c6ccc7c(c6)C(=O)N(C6CCC(=O)NC6=O)C7=O)CC5)CC4)ncc3Cl)ccc2n(C(C)C)c1=O (stereo not shown) [Exemplary Compound 263, 2-[[6-([5-chloro-2-[4-([1-[2-(2,6-dioxopiperidin-3-yl)-1,3-dioxoisoindol-5-yl]piperidin-4-yl]methyl)piperazin-1-yl]pyrimidin-4-yl]amino)-1-isopropyl-2-oxoquinolin-3-yl]oxy]-N-methylacetamide] | 10 to 50 | 50 to 70 | – |
| CCn1c(=O)c(OCC(=O)NC)cc2cc(Nc3nc(N4CCN(CC5CCN(c6cccc7c6C(=O)N(C6CCC(=O)NC6=O)C7=O)CC5)CC4)ncc3Cl)ccc21 (stereo not shown) [compound 310, 2-{[6-({5-chloro-2-[4-({1-[2-(2,6-dioxopiperidin-3-yl)-1,3-dioxo-2,3-dihydro-1H-isoindol-4-yl]piperidin-4-yl}methyl)piperazin-1-yl]pyrimidin-4-yl}amino)-1-ethyl-2-oxo-1,2-dihydroquinolin-3-yl]oxy}-N-methylacetamide] | < 10 | 50 to 70 | – |
| CNC(=O)COc1cc2cc(Nc3nc(N4CCN(C)CC4)ncc3Cl)ccc2n(CCCOc2ccc3c(c2)C(=O)N(C2CCC(=O)NC2=O)C3=O)c1=O (stereo not shown) [compound 244, 2-((6-((5-chloro-2-(4-methylpiperazin-1-yl)pyrimidin-4-yl)amino)-1-(3-((2-(2,6-dioxopiperidin-3-yl)-1,3-dioxoisoindolin-5-yl)oxy)propyl)-2-oxo-1,2-dihydroquinolin-3-yl)oxy)-N-methylacetamide] | ≥ 100 | ≥ 70 | – |
| CNC(=O)COc1cc2cc(Nc3nc(N4CCC(OCCCOc5cc(-c6scnc6C)ccc5CNC(=O)[C@@H]5C[C@@H](O)CN5C(=O)C(c5cc(C)no5)C(C)C)CC4)ncc3Cl)ccc2n(C)c1=O (stereo partly drawn) [compound 141, (2S,4R)-N-(2-(3-((1-(5-chloro-4-((1-methyl-3-(2-(methylamino)-2-oxoethoxy)-2-oxo-1,2-dihydroquinolin-6-yl)amino)pyrimidin-2-yl)piperidin-4-yl)oxy)propoxy)-4-(4-methylthiazol-5-yl)benzyl)-4-hydroxy-1-(3-methyl-2-(3-methylisoxazol-5-yl)butanoyl)pyrrolidine-2-carboxamide] | – | – | DC50: > 100 nM |
| CNC(=O)COc1cc2cc(Nc3nc(N4CCN(CC5CCN(C(=O)c6ccc(N7CCC(=O)NC7=O)cc6)CC5)CC4)ncc3Cl)ccc2n(C(C)C)c1=O [compound 402, 2-{[6-({5-chloro-2-[4-({1-[4-(2,4-dioxo-1,3-diazinan-1-yl)benzoyl]piperidin-4-yl}methyl)piperazin-1-yl]pyrimidin-4-yl}amino)-2-oxo-1-(propan-2-yl)-1,2-dihydroquinolin-3-yl]oxy}-N-methylacetamide] | – | – | IC50 (T47D cells): ≥ 100 nM |
| CNC(=O)COc1cc2cc(Nc3nc(N4CCC(OCCOCCOCCCOc5ccccc5CCOc5ccc6c(c5)CN(C5CCC(=O)NC5=O)C6=O)CC4)ncc3Cl)ccc2n(C)c1=O (stereo not shown) [compound 111, 2-((6-((5-chloro-2-(4-(2-(2-(3-(2-(2-((2-(2,6-dioxopiperidin-3-yl)-1-oxoisoindolin-5-yl)oxy)ethyl)phenoxy)propoxy)ethoxy)ethoxy)piperidin-1-yl)pyrimidin-4-yl)amino)-1-methyl-2-oxo-1,2-dihydroquinolin-3-yl)oxy)-N-methylacetamide] | – | – | DC50: > 100 nM |
| CNC(=O)COc1cc2cc(Nc3nc(N4CCC(CN5CCC6(CC5)CN(c5ccc7c(c5)C(=O)N(C5CCC(=O)NC5=O)C7=O)C6)CC4)ncc3Cl)ccc2n(C(C)C)c1=O (stereo not shown) [compound 372, 2-{[6-({5-chloro-2-[4-({2-[2-(2,6-dioxopiperidin-3-yl)-1,3-dioxo-2,3-dihydro-1H-isoindol-5-yl]-2,7-diazaspiro[3.5]nonan-7-yl}methyl)piperidin-1-yl]pyrimidin-4-yl}amino)-2-oxo-1-(propan-2-yl)-1,2-dihydroquinolin-3-yl]oxy}-N-methylacetamide] | – | – | Dmax (T47D cells): 50 to 70%; IC50 (T47D cells): < 10 nM |
| CNC(=O)COc1cc2cc(Nc3nc(N4CCC(CN5CC6(C5)CN(c5cccc7c5C(=O)N(C5CCC(=O)NC5=O)C7=O)C6)CC4)ncc3Cl)ccc2n(C)c1=O (stereo not shown) [compound 256, 2-((6-((5-chloro-2-(4-((6-(2-(2,6-dioxopiperidin-3-yl)-1,3-dioxoisoindolin-4-yl)-2,6-diazaspiro[3.3]heptan-2-yl)methyl)piperidin-1-yl)pyrimidin-4-yl)amino)-1-methyl-2-oxo-1,2-dihydroquinolin-3-yl)oxy)-N-methylacetamide] | < 10 | 50 to 70 | – |
| CNC(=O)COc1cc2cc(Nc3nc(N4CCC(CN5CC6(CCN(c7cccc(C(=O)NC8CCC(=O)NC8=O)c7OC)CC6)C5)CC4)ncc3Cl)ccc2n(C(C)C)c1=O (stereo not shown) [compound 441, 3-[2-({1-[5-chloro-4-({3-[(methylcarbamoyl)methoxy]-2-oxo-1-(propan-2-yl)-1,2-dihydroquinolin-6-yl}amino)pyrimidin-2-yl]piperidin-4-yl}methyl)-2,7-diazaspiro[3.5]nonan-7-yl]-N-(2,6-dioxopiperidin-3-yl)-2-methoxybenzamide] | – | – | IC50 (T47D cells): ≥ 100 nM |
